Values of other authors in US9700574B2, “Use of secnidazole in treatment of dental infections” (ATHENA PHARMACEUTIQUES SAS, priority 2011, dated 2017).

Key:
[1] = in vivo
tested microorganisms = conditions: in vitro; oro-dental gel for the periodontal pocket; Drug Development and Industrial Pharmacy 34:1356-1367, 2008

| Structure (SMILES) | half-life [1] | minimal inhibition concentration for the tested microorganisms (tested microorganisms) |
| --- | --- | --- |
| CC[C@H]1OC(=O)[C@H](C)[C@@H](O[C@H]2C[C@@](C)(OC)[C@@H](O)[C@H](C)O2)[C@H](C)[C@@H](O[C@@H]2O[C@H](C)C[C@H](N(C)C)[C@H]2O)[C@](C)(O)C[C@@H](C)CN(C)[C@H](C)[C@@H](O)[C@]1(C)O [azithromycine] | about 20 hours |  |
| Cc1ncc([N+](=O)[O-])n1CC(C)O (stereo not drawn) [secnidazole, alpha-2-dimethyl-5-nitro-1H-imidazole-1-ethanol] | about 25 hours | 0.125-5 μg of secnidazole per ml of gel |
